# Publication PMC9098913, “In vitro reconstitution of Escherichia coli divisome activation” (Nature Communications, 2022)
# Test: Diffusion coefficient of His-tagged FtsAs and His-SUMO on Tris-NTA membranes (FRAP)
# Description: To study colocalization of His-tagged variants of FtsA, 0.5–1 µM of Cy5 labelled His-tagged FtsAs were added to the chamber, incubated for 20 min and washed 6x with reaction buffer. […] To control the density of membrane-bound FtsA, SUVs without and with Tris-NTA lipids were mixed to obtain the respective Tris-NTA concentrations. To perform FRET/FRAP experiments, equimolar concentrations of Cy3 and Cy5 labelled His-tagged FtsAs (total 0.5–1 µM) or His-SUMO-Cys were added to a chamber and treated as above. […] FRAP experiments were performed as described before.
# Bleaching the acceptor dye leads to an increase in the donor intensity, which can be used to quantify the Foerster Resonance energy transfer (FRET)[48]. FRET efficiency was quantified with E%=Ipost/Ipost+Ipre⋅100 , where Ipost is the intensity of the […] and Ipre is the […]. […] To extract the contribution of both processes, we adjusted a routine recently published by Gerganova et al.[33]. In short, the code provides the contribution of both modes of recovery by analysing the shape of the fluorescence recovery profile. […] Contribution of diffusion leads to a change of the slope of the outer borders of the bleached region (S4h right). Thus, by measuring the change of the slope of the border recovery, diffusion and simple on/off binding can be distinguished. We developed “FRAPdiff”, a graphical user interface, which uses the original fit routine by David Rutkowski. It can be used directly on.tiff movies with annotated bleach regions as ImageJ ROIs. In addition, we added optional bleach correction, user selectable projection axis (x or y), and optional mirroring of the recovery profiles, if bleaching was not symmetric. The original fit routine for estimating the recovery and diffusion dynamics can be found at https://github.com/davidmrutkowski/1DReflectingDiffusion. FRAPdiff is available at 10.5281/zenodo.6400639[49] under the GPLv3 open-source license.
substance,measurement,setting,value
FtsA-His6: FtsA WT (1-405) with amphipathic helix replaced by C-terminal His-tag,Diffusion Coefficient,"0.1% Tris NTA, + FtsZ, mean (n: WT 2, R286W 3)",0.07 µm2/s
same,Diffusion Coefficient,"0.1% Tris NTA, + FtsZ, replicate Exp1",0.14 µm2/s
same,Diffusion Coefficient,"0.1% Tris NTA, + FtsZ, replicate Exp2",0.000245 µm2/s
same,Diffusion Coefficient,"0.1% Tris NTA, without FtsZ, replicate Exp1",0.35 µm2/s
same,Diffusion Coefficient,"0.1% Tris NTA, without FtsZ, replicate Exp2",0.29 µm2/s
same,Diffusion Coefficient,"0.4% Tris NTA, + FtsZ, mean (n: WT 2, R286W 3)",0.0146 µm2/s
same,Diffusion Coefficient,"0.4% Tris NTA, + FtsZ, replicate Exp1",0.0175 µm2/s
same,Diffusion Coefficient,"0.4% Tris NTA, + FtsZ, replicate Exp2",0.0117 µm2/s
same,Diffusion Coefficient,"0.4% Tris NTA, without FtsZ, replicate Exp1",0.11 µm2/s
same,Diffusion Coefficient,"0.4% Tris NTA, without FtsZ, replicate Exp2",0.10 µm2/s
same,Diffusion Coefficient,"0.6% Tris NTA, + FtsZ, mean (n: WT 5, R286W 5)",0.0113 µm2/s
same,Diffusion Coefficient,"0.6% Tris NTA, + FtsZ, replicate Exp1",0.02 µm2/s
same,Diffusion Coefficient,"0.6% Tris NTA, + FtsZ, replicate Exp2",0.01 µm2/s
same,Diffusion Coefficient,"0.6% Tris NTA, + FtsZ, replicate Exp3",0.0152 µm2/s
same,Diffusion Coefficient,"0.6% Tris NTA, + FtsZ, replicate Exp4",0.00625 µm2/s
same,Diffusion Coefficient,"0.6% Tris NTA, + FtsZ, replicate Exp5",0.00411 µm2/s
same,Diffusion Coefficient,"0.6% Tris NTA, without FtsZ, mean (n: WT 4, R286W 5, SUMO 4)",0.03 µm2/s
same,Diffusion Coefficient,"0.6% Tris NTA, without FtsZ, replicate Exp1",0.0256 µm2/s
same,Diffusion Coefficient,"0.6% Tris NTA, without FtsZ, replicate Exp2",0.00783 µm2/s
same,Diffusion Coefficient,"0.6% Tris NTA, without FtsZ, replicate Exp3",0.0422 µm2/s
same,Diffusion Coefficient,"0.6% Tris NTA, without FtsZ, replicate Exp4",0.046 µm2/s
same,Diffusion Coefficient,"0.8% Tris NTA, + FtsZ, mean",0.012 µm2/s
same,Diffusion Coefficient,"0.8% Tris NTA, + FtsZ, replicate Exp1",0.00842 µm2/s
same,Diffusion Coefficient,"0.8% Tris NTA, + FtsZ, replicate Exp2",0.00437 µm2/s
same,Diffusion Coefficient,"0.8% Tris NTA, + FtsZ, replicate Exp3",0.00795 µm2/s
same,Diffusion Coefficient,"0.8% Tris NTA, + FtsZ, replicate Exp4",0.03 µm2/s
same,Diffusion Coefficient,"0.8% Tris NTA, + FtsZ, replicate Exp5",0.00835 µm2/s
same,Diffusion Coefficient,"0.8% Tris NTA, without FtsZ, mean",0.0135 µm2/s
same,Diffusion Coefficient,"0.8% Tris NTA, without FtsZ, replicate Exp1",0.0179 µm2/s
same,Diffusion Coefficient,"0.8% Tris NTA, without FtsZ, replicate Exp3",8.35e-15 µm2/s
same,Diffusion Coefficient,"0.8% Tris NTA, without FtsZ, replicate Exp4",0.0124 µm2/s
same,Diffusion Coefficient,"0.8% Tris NTA, without FtsZ, replicate Exp5",0.0374 µm2/s
same,Diffusion Coefficient,"1% Tris NTA, + FtsZ, mean",0.02 µm2/s
same,Diffusion Coefficient,"1% Tris NTA, + FtsZ, replicate Exp1",0.0115 µm2/s
same,Diffusion Coefficient,"1% Tris NTA, + FtsZ, replicate Exp2",0.00322 µm2/s
same,Diffusion Coefficient,"1% Tris NTA, + FtsZ, replicate Exp3",0.00542 µm2/s
same,Diffusion Coefficient,"1% Tris NTA, + FtsZ, replicate Exp4",0.00574 µm2/s
same,Diffusion Coefficient,"1% Tris NTA, + FtsZ, replicate Exp5",0.07 µm2/s
same,Diffusion Coefficient,"1% Tris NTA, + FtsZ, replicate Exp6",0.0435 µm2/s
same,Diffusion Coefficient,"1% Tris NTA, + FtsZ, replicate Exp7",0.000437 µm2/s
same,Diffusion Coefficient,"1% Tris NTA, without FtsZ, mean",0.0254 µm2/s
same,Diffusion Coefficient,"1% Tris NTA, without FtsZ, replicate Exp1",0.0438 µm2/s
same,Diffusion Coefficient,"1% Tris NTA, without FtsZ, replicate Exp2",0.000108 µm2/s
same,Diffusion Coefficient,"1% Tris NTA, without FtsZ, replicate Exp3",6.32e-6 µm2/s
same,Diffusion Coefficient,"1% Tris NTA, without FtsZ, replicate Exp4",0.06 µm2/s
same,Diffusion Coefficient,"Tris 0.10 %, + FtsZ",0.07 µm2/s
same,Diffusion Coefficient,"Tris 0.10 %, without FtsZ",0.32 µm2/s
same,Diffusion Coefficient,"Tris 0.40 %, + FtsZ",0.0146 µm2/s
same,Diffusion Coefficient,"Tris 0.40 %, without FtsZ",0.11 µm2/s
same,Diffusion Coefficient,"Tris 0.60 %, + FtsZ",0.0113 µm2/s
same,Diffusion Coefficient,"Tris 0.60 %, without FtsZ",0.03 µm2/s
same,Diffusion Coefficient,"Tris 0.80 %, + FtsZ",0.012 µm2/s
same,Diffusion Coefficient,"Tris 0.80 %, without FtsZ",0.0135 µm2/s
same,Diffusion Coefficient,"Tris 1.00 %, + FtsZ",0.02 µm2/s
same,Diffusion Coefficient,"Tris 1.00 %, without FtsZ",0.0254 µm2/s
same,Diffusion Coefficient,"Tris 2.00 %, + FtsZ",0.000263 µm2/s
same,Diffusion Coefficient,"Tris 2.00 %, without FtsZ",0.00604 µm2/s
same,Diffusion Coefficient,"[…] Tris NTA, + FtsZ, mean (n: WT 2, R286W 3)",0.03 µm2/s
same,Diffusion Coefficient,"[…] Tris NTA, + FtsZ, replicate Exp1",0.05 µm2/s
same,Diffusion Coefficient,"[…] Tris NTA, + FtsZ, replicate Exp2",0.0108 µm2/s
same,Diffusion Coefficient,"[…] Tris NTA, without FtsZ, replicate Exp1",0.11 µm2/s
same,Diffusion Coefficient,"[…] Tris NTA, without FtsZ, replicate Exp2",0.14 µm2/s
same,Diffusion Coefficient,"[…] Tris-NTA, + N (FtsNcyto), mean",1.72E-05 µm2/s
same,Diffusion Coefficient,"[…] Tris-NTA, + N/Z, Exp. 1",1.69E-05 µm2/s
same,Diffusion Coefficient,"[…] Tris-NTA, + N/Z, Exp. 2",1.87E-06 µm2/s
same,Diffusion Coefficient,"[…] Tris-NTA, + N/Z, Exp. 3",5.64E-12 µm2/s
same,Diffusion Coefficient,"[…] Tris-NTA, + N/Z, mean",6.26E-06 µm2/s
same,Diffusion Coefficient,"[…] Tris-NTA, + N, Exp. 1",1.23E-05 µm2/s
same,Diffusion Coefficient,"[…] Tris-NTA, + N, Exp. 2",2.69E-05 µm2/s
same,Diffusion Coefficient,"[…] Tris-NTA, + N, Exp. 3",1.23E-05 µm2/s
same,Diffusion Coefficient,"[…] Tris-NTA, + Z (FtsZ), mean",1.67E-03 µm2/s
same,Diffusion Coefficient,"[…] Tris-NTA, + Z, Exp. 1",3.64E-05 µm2/s
same,Diffusion Coefficient,"[…] Tris-NTA, + Z, Exp. 2",4.36E-03 µm2/s
same,Diffusion Coefficient,"[…] Tris-NTA, + Z, Exp. 3",1.74E-03 µm2/s
same,Diffusion Coefficient,"[…] Tris-NTA, + Z, Exp. 4",5.51E-04 µm2/s
same,Diffusion Coefficient,"[…] Tris-NTA, alone, Exp. 1",1.17E-02 µm2/s
same,Diffusion Coefficient,"[…] Tris-NTA, alone, Exp. 2",2.57E-05 µm2/s
same,Diffusion Coefficient,"[…] Tris-NTA, alone, Exp. 3",3.15E-03 µm2/s
same,Diffusion Coefficient,"[…] Tris-NTA, alone, Exp. 4",7.92E-04 µm2/s
same,Diffusion Coefficient,"[…] Tris-NTA, alone, mean",3.92E-03 µm2/s
